Legend:
macrophage [1] = test: Flow cytometry of macrophage, CD 86 expression (M1 marker); assay type: cell-based, ND4 mice; conditions: 20 nanomolar compound, with or without folate-glucosamine competition; treatment for 24 hours
Procedure: FIG. 6 is an example of compound 101 in flow cytometry of macrophage gated on F4/80 to show CD 206 expression (a marker for M2, anti-inflammatory macrophages). Briefly, 1.5 mL of 3% thioglycolate were injected into the intraperitoneal cavity of 12-week-old ND4 mice. Three days later the macrophages were isolated by intraperitoneal lavage and plated in a 12-well dish and incubated at 37° C./5% CO2. […] 1 or 20 nanomolar of the compound in FIG. 1 plus 100-fold excess folate-glucosamine (to show receptor-specific binding) or untreated control or 10 nanomolar free dexamethasone (to show the effect of the free drug) and allowed to incubate at 37° C./5% CO2 for the allotted time. […] The samples were then washed 3 times with ice-cold 1% FBS in PBS before being analyzed by flow cytometry.
FIG. 8 is an example of Compound 101 in flow cytometry of macrophage to show CD 86 expression with controls.

macrophage [2] = test: Flow cytometry of thioglycolate-elicited peritoneal macrophages gated on F4/80, CD 206 expression (M2 marker); assay type: cell-based, ND4 mice; conditions: 20 nanomolar; targeted group vs competition group (plus 100-fold excess folate-glucosamine); macrophage gated on F4/80
Procedure: FIG. 6 is an example of compound 101 in flow cytometry of macrophage gated on F4/80 to show CD 206 expression (a marker for M2, anti-inflammatory macrophages). Briefly, 1.5 mL of 3% thioglycolate were injected into the intraperitoneal cavity of 12-week-old ND4 mice. Three days later the macrophages were isolated by intraperitoneal lavage and plated in a 12-well dish and incubated at 37° C./5% CO2. After 24 hours, the media was replaced with media containing 20 nanomolar the compound in FIGS. 1 or 20 nanomolar of the compound in FIG. 1 plus 100-fold excess folate-glucosamine (to show receptor-specific binding) or untreated control or 10 nanomolar free dexamethasone (to show the effect of the free drug) and allowed to incubate at 37° C./5% CO2 for the allotted time. Then 3 days later the cells were detached and incubated with the corresponding fluorescently labeled antibodies for 1 hour at 4° C. in 1% fetal bovine serum (FBS) in phosphate- buffered saline (PBS). The samples were then washed 3 times with ice-cold 1% FBS in PBS before being analyzed by flow cytometry.

[3] = system: F4/80 (mouse macrophage), CD4 (T helper cell), CD8 (cytotoxic T cell), and Ly6G (neutrophil) cells; test: Thioglycollate-induced peritonitis, flow cytometry of peritoneal lavage cells; assay type: in vivo, BALB/C or Swiss Webster mice; conditions: treated group vs the untreated or vehicle, peritoneal cavity; for percentage of F4/80 macrophages: 10 nmol I.V. 48 hrs after induction stated for Compound 107
Procedure: Induced peritonitis with 1.5 mL 3% thioglycollate injected I.P. into either BALB/C or Swiss Webster mice maintained on a folate free diet for at least three weeks and treated with 10 nmol Compound 107 injected I.V. 48 hrs after induction. After an additional 48 hrs the mice were euthanized, and peritoneal lavage was performed using 2% fetal bovine serum (FBS) in phosphate buffered saline (PBS). Cells were passed through a 70 µm cell filter to remove debris then counted using a hemocytometer. Approximately 1 million cells pre-incubated in anti-CD16/32 (to block endogenous Fc receptor binding) for one hour on ice in 100 µL of 2% FBS in PBS. Then the cells incubated with at least one of the following fluorescently labeled antibodies for cell surface markers: PE-F4/80 or PE/Cy7-F4/80 (mouse macrophage), FITC-CD4 (T helper cell), eFluor780-CD8 (cytotoxic T cell), and PerCP/Cy5.5-Ly6G (neutrophil) according to the manufacturers recommended procedure on ice for 1 hour. Cells were washed twice with 1 mL of ice cold 2% FBS in PBS then suspended in 2% FBS in PBS. Controls included unstained cells as the negative control as well as the use of 1 drop of compensation beads per dye-antibody (1 µL) for a positive control incubated for 1 hour on ice and washed twice with 1 mL 2% FBS in PBS. All samples were centrifuged at 400xg for 10 min between washes, transfers and after incubation to remove supernatant.
Samples and appropriate controls were analyzed on an Attune NxT Acoustic Focusing Cytometer collecting between 10,000 and 30,000 events per sample utilizing laser lines BL1-A, BL2-A, BL3-A, and YL4-A for FITC-CD4, PE-F4/80, PerCP/Cy5.5-Ly6G and eFluor780-CD8 or PE/Cy7-F4/80, respectively. Flow cytometry data analysis involved first observing the cells run in the experiment using forward and side-scattering light (FSC and SSC, respectively). All observed cells were gated (R1) and analyzed for relative abundance of F4/80 (mouse macrophage), CD4 (T helper cell), CD8 (cytotoxic T cell), and Ly6G (neutrophil) cells within the population. Values from quadrant gating based on negative controls were then represented in bar graph form.

colon = conditions: 10nmols i.v. on days 3 and 4; 2.5% DSS for 6 days; treated vs untreated colon, day 6
Procedure: 8-12 week old C57BL/6 mice were maintained on a folate free diet for at least three week dextran sodium sulfate (DSS) was added to their drinking water at a final concentration of 2.5% for 6 days. […] On day 6 the mice were euthanized by CO2 affixation followed by cervical dislocation. Then the colons were excised and prepared for histology as described previously (J Vis Exp. 2012; (60): 3678.). Briefly, the colons were cut out and the fecal contents were gently removed and washed in PBS. The colons were fixed in 10% buffered formalin for 24 hrs followed by transfer to 70% ethanol. These samples were submitted to the Purdue Veterinary Pathology lab where they were embedded in paraffin, sectioned, and stained with hematoxylin and eosin.

Molecule	CD 86 expression (marker for M1, pro-inflammatory macrophages) (macrophage [1])	CD 206 expression (marker for M2, anti-inflammatory macrophages) (macrophage [2])	percentage of FITC-CD4 (T helper cell) [3]	percentage of PerCP/Cy5.5-Ly6G (neutrophil) [3]	percentage of eFluor780-CD8 (cytotoxic T cell) [3]	percentage of F4/80 macrophages [3]	crypt architecture (colon histology) (colon)	infiltrating immune cells (colon histology) (colon)	number of goblet cells (colon histology) (colon)
C[C@H]1C[C@@H]2[C@H]3CCC4=CC(=O)C=C[C@@]4(C)[C@]3(F)[C@H](O)C[C@@]2(C)[C@]1(O)C(=O)COC(=O)NCCSSC(C)(C)C(NC(=O)c1ccc(NCc2cnc3nc(N)[nH]c(=O)c3n2)cc1)C(=O)O (some centres unmarked) [Compound 101, Folate-Hydrolink-Cysteine-Carbonate-Dexamethasone]	no observable differences	Increased expression of CD 206 in the targeted group over the competition group	–	–	–	–	–	–	–
Folate-AlbuminBinder-PEG2-Hydrolink-DimethylCysteine-Carbamate-Dexamethasone [Compound 107]	–	–	lower	lower	lower	lower	more crypt architecture	fewer infiltrating immune cells	higher number of goblet cells
Folate-PEG2-Hydrolink-DimethylCysteine-Carbamate-Dexamethasone [Compound 106]	–	–	–	–	–	lower	–	–	–
Folate-PEG12(CH2)-Pyrophosphate-Dexamethasone [Compound 108]	–	–	lower	lower	lower	lower	–	–	–

From patent US20230331767A1, “TARGETED STEROID COMPOUNDS” (priority 2020, published 2023)
